# Test results as given in ChEMBL document CHEMBL4000200, “Structure-activity relationships of 4-hydroxy-4-biaryl-proline acylsulfonamide tripeptides: A series of potent NS3 protease inhibitors for the treatment of hepatitis C virus” (Bioorg Med Chem Lett, 2017).
# Legend:
# Heart [1] = experiment: Cardiotoxicity in Langendorff perfused rabbit heart assessed as heart rate at 10 uM perfused for 10 mins (reference value: -1 +/- 1%); type: toxicity, tissue-based, Oryctolagus cuniculus
# Heart [2] = experiment: Cardiotoxicity in Langendorff perfused rabbit heart assessed as heart rate at 10 uM perfused for 20 mins (reference value: -3 +/- 3%); type: toxicity, tissue-based, Oryctolagus cuniculus
# Heart [3] = experiment: Cardiotoxicity in Langendorff perfused rabbit heart assessed as sinoatrial node recovery time at 10 uM perfused for 10 mins (reference value: 3 +/- 1%); type: toxicity, tissue-based, Oryctolagus cuniculus
# Heart [4] = experiment: Cardiotoxicity in Langendorff perfused rabbit heart assessed as sinoatrial node recovery time at 10 uM perfused for 20 mins (reference value: 4 +/- 5%); type: toxicity, tissue-based, Oryctolagus cuniculus
# Heart [5] = experiment: Cardiotoxicity in Langendorff perfused rabbit heart assessed as coronary flow at 10 uM perfused for 10 mins (reference value: -4 +/- 6%); type: toxicity, tissue-based, Oryctolagus cuniculus
# Heart [6] = experiment: Cardiotoxicity in Langendorff perfused rabbit heart assessed as coronary flow at 10 uM perfused for 20 mins (reference value: -6 +/- 8%); type: toxicity, tissue-based, Oryctolagus cuniculus
# [7] = Inhibition of HCV genotype 1a NS3/4A protease; set-up: species or system Hepatitis C virus subtype 1a
# Hepatitis C virus = experiment: Antiviral activity against HCV genotype 1b by cell based replicon assay; type: functional, Hepacivirus hominis
# [8] = Permeability of the compound at pH 5.5 by PAMPA; type: physicochemical; conditions: read-out: permeability
# [9] = Permeability of the compound at pH 7.4 by PAMPA; type: physicochemical; conditions: read-out: permeability
# [10] = AUC in id dosed rat plasma after 4 hrs; type: ADME, organism-based; set-up: time < 4 hr
# [11] = Drug uptake in id dosed rat liver after 4 hrs; type: ADME, organism-based; conditions: read-out: Drug uptake
# [12] = Oral bioavailability in rat at 15 mg/kg after 24 hrs; type: ADME, organism-based; conditions: in vivo
# [13] = AUC in rat at 15 mg/kg, po after 24 hrs; type: ADME, organism-based; set-up: dose 15 mg/kg, time < 24 hr, route oral; conditions: in vivo
# [14] = Clearance in rat at 5 mg/kg, iv; type: ADME, organism-based; conditions: in vivo
# [15] = Half life in rat at 5 mg/kg, iv; type: ADME, organism-based; conditions: in vivo
# [16] = Drug uptake in rat liver at 15 mg/kg, po after 24 hrs; type: ADME, organism-based; conditions: read-out: Drug uptake
IC50 [7],EC50 (Hepatitis C virus),SMILES,other results
105 nM,1470 nM,C=C[C@@H]1C[C@]1(NC(=O)[C@@H]1C[C@@](O)(c2ccc(OC)cc2)CN1C(=O)[C@@H](NC(=O)OC(C)(C)C)C(C)(C)C)C(=O)NS(=O)(=O)C1CC1,
568 nM,4240 nM,C=C[C@@H]1C[C@]1(NC(=O)[C@@H]1C[C@@](O)(c2ccc(C)c(F)c2)CN1C(=O)[C@@H](NC(=O)OC(C)(C)C)C(C)(C)C)C(=O)NS(=O)(=O)C1CC1,
728 nM,3940 nM,C=C[C@@H]1C[C@]1(NC(=O)[C@@H]1C[C@@](O)(c2cc(F)ccc2OC)CN1C(=O)[C@@H](NC(=O)OC(C)(C)C)C(C)(C)C)C(=O)NS(=O)(=O)C1CC1,
703 nM,8370 nM,C=C[C@@H]1C[C@]1(NC(=O)[C@@H]1C[C@@](O)(c2cccc(C(C)C)c2)CN1C(=O)[C@@H](NC(=O)OC(C)(C)C)C(C)(C)C)C(=O)NS(=O)(=O)C1CC1,
80 nM,6450 nM,C=C[C@@H]1C[C@]1(NC(=O)[C@@H]1C[C@@](O)(c2cc(C)cc(C)c2)CN1C(=O)[C@@H](NC(=O)OC(C)(C)C)C(C)(C)C)C(=O)NS(=O)(=O)C1CC1,
190 nM,2470 nM,C=C[C@@H]1C[C@]1(NC(=O)[C@@H]1C[C@@](O)(c2ccc(F)cc2)CN1C(=O)[C@@H](NC(=O)OC(C)(C)C)C(C)(C)C)C(=O)NS(=O)(=O)C1CC1,
76 nM,3270 nM,C=C[C@@H]1C[C@]1(NC(=O)[C@@H]1C[C@@](O)(c2cccc(C)c2)CN1C(=O)[C@@H](NC(=O)OC(C)(C)C)C(C)(C)C)C(=O)NS(=O)(=O)C1CC1,
52 nM,3700 nM,C=C[C@@H]1C[C@]1(NC(=O)[C@@H]1C[C@@](O)(c2cccc(OC)c2)CN1C(=O)[C@@H](NC(=O)OC(C)(C)C)C(C)(C)C)C(=O)NS(=O)(=O)C1CC1,
57 nM,4060 nM,C=C[C@@H]1C[C@]1(NC(=O)[C@@H]1C[C@@](O)(c2cccc(F)c2)CN1C(=O)[C@@H](NC(=O)OC(C)(C)C)C(C)(C)C)C(=O)NS(=O)(=O)C1CC1,
136 nM,2310 nM,C=C[C@@H]1C[C@]1(NC(=O)[C@@H]1C[C@@](O)(c2cc(C)ccc2C)CN1C(=O)[C@@H](NC(=O)OC(C)(C)C)C(C)(C)C)C(=O)NS(=O)(=O)C1CC1,
960 nM,3400 nM,C=C[C@@H]1C[C@]1(NC(=O)[C@@H]1C[C@@](O)(c2cccc(N(C)C)c2)CN1C(=O)[C@@H](NC(=O)OC(C)(C)C)C(C)(C)C)C(=O)NS(=O)(=O)C1CC1,
140 nM,2360 nM,C=C[C@@H]1C[C@]1(NC(=O)[C@@H]1C[C@@](O)(c2ccccc2)CN1C(=O)[C@@H](NC(=O)OC(C)(C)C)C(C)(C)C)C(=O)NS(=O)(=O)C1CC1,
134 nM,7700 nM,C=C[C@@H]1C[C@]1(NC(=O)[C@@H]1C[C@@](O)(c2ccc(F)c(C)c2)CN1C(=O)[C@@H](NC(=O)OC(C)(C)C)C(C)(C)C)C(=O)NS(=O)(=O)C1CC1,
80 nM,3660 nM,C=C[C@@H]1C[C@]1(NC(=O)[C@@H]1C[C@@](O)(c2cccc(Cl)c2)CN1C(=O)[C@@H](NC(=O)OC(C)(C)C)C(C)(C)C)C(=O)NS(=O)(=O)C1CC1,

# The remaining lines, values behind:
SMILES,IC50 [7],EC50 (Hepatitis C virus),other results
C=C[C@@H]1C[C@]1(NC(=O)[C@@H]1C[C@@H](Oc2ncc(OC)c3ccc(Cl)cc23)CN1C(=O)[C@@H](NC(=O)OC(C)(C)C)C(C)(C)C)C(=O)NS(=O)(=O)C1CC1,,,Activity (Heart [1]): 1%; Activity (Heart [2]): -1%; Activity (Heart [3]): -1%; Activity (Heart [4]): 4%; Activity (Heart [5]): -3%; Activity (Heart [6]): -1%
C=C[C@@H]1C[C@]1(NC(=O)[C@@H]1C[C@@](O)(c2ccccc2CN2CCOCC2)CN1C(=O)[C@@H](NC(=O)OC(C)(C)C)C(C)(C)C)C(=O)NS(=O)(=O)C1CC1,291 nM,4950 nM,
C=C[C@@H]1C[C@]1(NC(=O)[C@@H]1C[C@@](O)(c2cccc(OC(C)C)c2)CN1C(=O)[C@@H](NC(=O)OC(C)(C)C)C(C)(C)C)C(=O)NS(=O)(=O)C1CC1,101 nM,6250 nM,
C=C[C@@H]1C[C@]1(NC(=O)[C@@H]1C[C@@](OC)(c2ccc(-c3ccccc3)cc2)CN1C(=O)[C@@H](NC(=O)OC(C)(C)C)C(C)(C)C)C(=O)NS(=O)(=O)C1CC1,2 nM,9 nM,Papp [8]: 38.1 ×10⁻⁶ cm/s; Papp [9]: 43.8 ×10⁻⁶ cm/s; AUC at 4 h [10]: 2.45 µM·h; concentration at 4 h [11]: 195000 ng/g; bioavailability [12]: 58%; AUC at 24 h [13]: 14.1 µM·h; clearance [14]: 17.8 mL/min/kg; half-life [15]: 4.6 h; concentration at 24 h [16]: 1100 nM; Activity (Heart [1]): -6%; Activity (Heart [2]): -3%; Activity (Heart [3]): 8%; Activity (Heart [4]): 7%; Activity (Heart [5]): 27%; Activity (Heart [6]): 20%
C=C[C@@H]1C[C@]1(NC(=O)[C@@H]1C[C@@](O)(c2ccc(Oc3ccccc3)cc2)CN1C(=O)[C@@H](NC(=O)OC(C)(C)C)C(C)(C)C)C(=O)NS(=O)(=O)C1CC1,50 nM,265 nM,
C=C[C@@H]1C[C@]1(NC(=O)[C@@H]1C[C@@](O)(c2ccc(-c3ccccn3)cc2)CN1C(=O)[C@@H](NC(=O)OC(C)(C)C)C(C)(C)C)C(=O)NS(=O)(=O)C1CC1,2 nM,39 nM,
C=CC[C@]1(O)C[C@@H](C(=O)N[C@]2(C(=O)NS(=O)(=O)C3CC3)C[C@H]2C=C)N(C(=O)[C@@H](NC(=O)OC(C)(C)C)C(C)(C)C)C1,1500 nM,30500 nM,
C=C[C@@H]1C[C@]1(NC(=O)[C@@H]1C[C@@](O)(c2ccc(-c3ccccc3OC)cc2)CN1C(=O)[C@@H](NC(=O)OC(C)(C)C)C(C)(C)C)C(=O)NS(=O)(=O)C1CC1,5 nM,24 nM,
C=C[C@@H]1C[C@]1(NC(=O)[C@@H]1C[C@@](O)(c2ccc(-n3cccc3)cc2)CN1C(=O)[C@@H](NC(=O)OC(C)(C)C)C(C)(C)C)C(=O)NS(=O)(=O)C1CC1,7 nM,97 nM,
C=C[C@@H]1C[C@]1(NC(=O)[C@@H]1C[C@@](O)(c2ccc(-c3nccs3)cc2)CN1C(=O)[C@@H](NC(=O)OC(C)(C)C)C(C)(C)C)C(=O)NS(=O)(=O)C1CC1,2 nM,41 nM,
C=C[C@@H]1C[C@]1(NC(=O)[C@@H]1C[C@@](O)(c2ccc3ccccc3c2)CN1C(=O)[C@@H](NC(=O)OC(C)(C)C)C(C)(C)C)C(=O)NS(=O)(=O)C1CC1,26 nM,412 nM,
C=C[C@@H]1C[C@]1(NC(=O)[C@@H]1C[C@@](O)(c2ccc(-c3ccccc3)cc2)CN1C(=O)[C@@H](NC(=O)OC(C)(C)C)C(C)(C)C)C(=O)NS(=O)(=O)C1CC1,4 nM,22 to 26 nM,Papp [8]: 7.9 ×10⁻⁶ cm/s; Papp [9]: 21.1 ×10⁻⁶ cm/s; AUC at 4 h [10]: 0.9 µM·h; concentration at 4 h [11]: 128 ng/g; Activity (Heart [1]): -2%; Activity (Heart [2]): -4%; Activity (Heart [3]): 2%; Activity (Heart [4]): 7%; Activity (Heart [5]): 2%; Activity (Heart [6]): -2%
C=C[C@@H]1C[C@]1(NC(=O)[C@@H]1C[C@@](O)(c2cccc(-c3ccc(OC)cc3)c2)CN1C(=O)[C@@H](NC(=O)OC(C)(C)C)C(C)(C)C)C(=O)NS(=O)(=O)C1CC1,620 nM,3210 nM,
C=C[C@@H]1C[C@]1(NC(=O)[C@@H]1C[C@@](O)(c2nc3ccccc3s2)CN1C(=O)[C@@H](NC(=O)OC(C)(C)C)C(C)(C)C)C(=O)NS(=O)(=O)C1CC1,127 nM,1120 nM,
C=C[C@@H]1C[C@]1(NC(=O)[C@@H]1CC(=O)CN1C(=O)[C@@H](NC(=O)OC(C)(C)C)C(C)(C)C)C(=O)NS(=O)(=O)C1CC1,3900 nM,70700 nM,
C=C[C@@H]1C[C@]1(NC(=O)[C@@H]1C[C@@](O)(c2cccc(CN3CCOCC3)c2)CN1C(=O)[C@@H](NC(=O)OC(C)(C)C)C(C)(C)C)C(=O)NS(=O)(=O)C1CC1,162 nM,3460 nM,
C=C[C@@H]1C[C@]1(NC(=O)[C@@H]1C[C@@H](Oc2nccc3cc(OC)ccc23)CN1C(=O)[C@@H](NC(=O)OC(C)(C)C)C(C)(C)C)C(=O)NS(=O)(=O)C1CC1,1 to 2 nM,,Papp [8]: 57.4 ×10⁻⁶ cm/s; Papp [9]: 17.8 ×10⁻⁶ cm/s; AUC at 4 h [10]: 10.4 µM·h; concentration at 4 h [11]: 64700 ng/g; Activity (Heart [1]): -13%; Activity (Heart [2]): -32%; Activity (Heart [3]): 69%; Activity (Heart [4]): 360%; Activity (Heart [5]): 12%; Activity (Heart [6]): 10%
